Experimental data: EPA's ToxRefDB 2

Key:
rat [1] = conditions: Sub-acute repeat dose toxicity, Oral, Gavage/Intubation, dose end: 4 day, group: systemic
rat [2] = conditions: Sub-acute repeat dose toxicity, Oral, Gavage/Intubation, dose end: 4 day, group: systemic; remark: listed apart in the source
rat [3] = conditions: Sub-acute repeat dose toxicity, Oral, Gavage/Intubation, dose end: 4 day, group: systemic; remark: listed apart in the source
rat [4] = conditions: Sub-acute repeat dose toxicity, Oral, Gavage/Intubation, dose end: 4 day, group: systemic; remark: listed apart in the source
mouse [5] = conditions: Carcinogenicity, b6c3f1, Oral, Feed, dose end: 80 week, group: systemic
rat [6] = conditions: Subchronic oral toxicity in rodents, fischer, Feed, dose end: 26 week, group: systemic
rat [7] = conditions: Carcinogenicity, fischer, Oral, Feed, dose end: 78 week, group: systemic
rat [8] = conditions: Sub-acute repeat dose toxicity, sprague dawley, Oral, Gavage/Intubation, dose end: 4 week, group: systemic
dog = conditions: Sub-acute repeat dose toxicity; beagle; Oral; Gavage/Intubation; dose end: 4 week; group: systemic; systemic / clinical chemistry / alanine aminotransferase (alt/sgpt) / alanine aminotransferase (alt/sgpt) + systemic / clinical chemistry / …
mouse [9] = conditions: Carcinogenicity, b6c3f1, Oral, Feed, dose end: 100 week, group: systemic
rat [10] = conditions: Carcinogenicity, fischer, Oral, Feed, dose end: 107 week, group: systemic
rat [11] = conditions: Neurotoxicity screening battery, sprague dawley, Injection, Subcutaneous, dose end: 22 week, group: cannot be grouped
rat [12] = conditions: Peri- and post-natal toxicity study (Segment III); sprague dawley; Injection; Subcutaneous; dose end: 22 PND; group: parental; systemic / in life observation / body weight / body weight
rat [13] = conditions: Prenatal developmental toxicity study; sprague dawley; Injection; Subcutaneous; dose end: 20 GD; group: maternal; reproductive / reproductive performance / premature delivery / premature delivery + systemic / in life observation / body weight / body …
[14] = systemic / in life observation / clinical signs / abnormal respiratory sounds + systemic / in life observation / clinical signs / fur (…
[15] = systemic / pathology microscopic / liver / necrosis
[16] = systemic / organ weight / liver / absolute
[17] = systemic / organ weight / liver / absolute + systemic / pathology microscopic / liver / necrosis
[18] = systemic / pathology microscopic / blood / lymphoma malignant + systemic / pathology microscopic / liver / hepatocellular carcinoma
[19] = systemic / pathology microscopic / liver / hepatocellular carcinoma
[20] = systemic / clinical chemistry / glucose / glucose + systemic / clinical chemistry / potassium / potassium + systemic / clinical chemistry / …
[21] = systemic / hematology / hematocrit (hct) / hematocrit (hct) + systemic / hematology / leukocyte (wbc) count differential / leukocyte (wbc…
[22] = systemic / in life observation / body weight / body weight + systemic / in life observation / mortality / mortality + systemic / pathology …
[23] = systemic / pathology microscopic / liver / hepatocellular carcinoma + systemic / pathology microscopic / liver / neoplastic nodule + …
[24] = systemic / clinical chemistry / alanine aminotransferase (alt/sgpt) / alanine aminotransferase (alt/sgpt) + systemic / clinical chemistry / …
[25] = systemic / organ weight / liver / absolute + systemic / organ weight / liver / relative to body weight + systemic / organ weight / liver / …
[26] = systemic / pathology gross / full gross necropsy / lymphoma malignant + systemic / in life observation / body weight / body weight gain
[27] = systemic / pathology gross / full gross necropsy / lymphoma malignant + systemic / in life observation / body weight / body weight gain + …
[28] = systemic / in life observation / body weight / body weight + systemic / pathology microscopic / mammary gland / dilatation + systemic / …
[29] = systemic / pathology microscopic / mammary gland / hyperplasia
[30] = reproductive / reproductive performance / estrous cycle / periodicity + systemic / clinical chemistry / corticosterone / corticosterone + …
[31] = systemic / clinical chemistry / corticosterone / corticosterone + systemic / in life observation / body weight / body weight gain

Compound: CNCc1ccc(S(C)(=O)=O)cc1Oc1ccc(Cl)c(C)c1C
- LOAEL (rat [1]; [14]): > 500 mg/kg/day
- NOAEL (rat [1]; [14]): ≥ 500 mg/kg/day
- LEL (rat [1]; [15]): 30 mg/kg/day
- NEL (rat [1]; [15]): < 30 mg/kg/day
- LOAEL (rat [2]; [14]): > 500 mg/kg/day
- NOAEL (rat [2]; [14]): ≥ 500 mg/kg/day
- LEL (rat [2]; [15]): 30 mg/kg/day
- NEL (rat [2]; [15]): < 30 mg/kg/day
- LOAEL (rat [3]; [16]): > 100 mg/kg/day
- NOAEL (rat [3]; [16]): ≥ 100 mg/kg/day
- LEL (rat [3]; [17]): 30 mg/kg/day
- NEL (rat [3]; [17]): < 30 mg/kg/day
- LOAEL (rat [4]; [14]): > 500 mg/kg/day
- NOAEL (rat [4]; [14]): ≥ 500 mg/kg/day
- LEL (rat [4]; [15]): 30 mg/kg/day
- NEL (rat [4]; [15]): < 30 mg/kg/day

Compound: Nc1ccc2c(c1)C(=O)c1ccccc1C2=O [2-Aminoanthraquinone]
- LOAEL (mouse [5]; [18]): > 1500 mg/kg/day
- NOAEL (mouse [5]; [18]): ≥ 1500 mg/kg/day
- LEL (mouse [5]; [19]): 750 mg/kg/day
- NEL (mouse [5]; [19]): < 750 mg/kg/day
- LEL (rat [6]; [20]): 500 mg/kg/day
- NEL (rat [6]; [20]): < 500 mg/kg/day
- LOAEL (rat [6]; [21]): > 1000 mg/kg/day
- NOAEL (rat [6]; [21]): ≥ 1000 mg/kg/day
- LEL (rat [7]; [22]): 100 mg/kg/day
- NEL (rat [7]; [22]): < 100 mg/kg/day
- LOAEL (rat [7]; [23]): > 345 mg/kg/day
- NOAEL (rat [7]; [23]): ≥ 345 mg/kg/day

Compound: O=C(NC(=O)c1cc(F)c(F)cc1Cl)Nc1cc(F)ccc1N1CCC(C(=O)O)CC1 [AVE2865]
- LOAEL (rat [8]; [24]): 35 mg/kg/day
- NOAEL (rat [8]; [24]): 5 mg/kg/day
- LEL (rat [8]; [25]): 5 mg/kg/day
- NEL (rat [8]; [25]): < 5 mg/kg/day
- LEL (dog): 1 mg/kg/day
- LOAEL (dog): > 10 mg/kg/day
- NEL (dog): < 1 mg/kg/day
- NOAEL (dog): ≥ 10 mg/kg/day

Compound: [Ca+2].[N-]=C=[N-] [Calcium cyanamide]
- LEL (mouse [9]; [26]): 75 mg/kg/day
- NEL (mouse [9]; [26]): < 75 mg/kg/day
- LOAEL (mouse [9]; [27]): > 300 mg/kg/day
- NOAEL (mouse [9]; [27]): ≥ 300 mg/kg/day
- LOAEL (rat [10]; [28]): > 10 mg/kg/day
- NOAEL (rat [10]; [28]): ≥ 10 mg/kg/day
- LEL (rat [10]; [29]): 5 mg/kg/day
- NEL (rat [10]; [29]): < 5 mg/kg/day

Compound: C[C@]12C[C@H](O)[C@H]3[C@@H](CCC4=CC(=O)CC[C@@]43C)[C@@H]1CC[C@@H]2C(=O)CO [Corticosterone]
- LOAEL (rat [11]; [30]): > 40 mg/kg/day
- NOAEL (rat [11]; [30]): ≥ 40 mg/kg/day
- LEL (rat [11]; [31]): 10 mg/kg/day
- NEL (rat [11]; [31]): < 10 mg/kg/day
- LEL (rat [12]): 40 mg/kg/day
- LOAEL (rat [12]): > 40 mg/kg/day
- NEL (rat [12]): < 40 mg/kg/day
- NOAEL (rat [12]): ≥ 40 mg/kg/day
- LEL (rat [13]): 40 mg/kg/day
- LOAEL (rat [13]): > 40 mg/kg/day
- NEL (rat [13]): < 40 mg/kg/day
- NOAEL (rat [13]): ≥ 40 mg/kg/day
